Patent US20120245120A1, “ZINC SUCROSE OCTASULFATES, THEIR PREPARATION, AND PHARMACEUTICAL AND COSMETIC USES THEREOF” (PIERRE FABRE DERMO-COSMETIQUE, priority 2009, published 2012)

Tested on: keratinocyte cell lines HaCAT
Test: In vitro cell migration assay (Oris Cell Migration Assay kit)
Format: cell-based, human
Design: Average OD: scale not given here
Conditions: for % activity/TGFβ / % activity/negative control / Average OD: HaCaT migration
Procedure: The purpose of this study was to assess the effect of zinc sucrose octasulfate on cell migration of keratinocyte cell lines HaCAT, using an Oris Cell Migration Assay Kit (Platypus Technologies). This study was carried out in comparison with potassium sucrose octasulfate, and sodium sucrose octasulfate.
Spontaneously immortalized human keratinocyte cell line HaCaT, frequently referred to in literature as a standard model.
The protocol used for the cell migration study is based on the use of a 96-well Oris Cell Migration Assay kit (Platypus Technologies-TEBU), providing miniaturization and quantification of this cell process.
The principle of this assay is to investigate the cell migration towards the centre of the well of a 96-well plate. A stopper is placed in some wells, in order to create a detection zone of 2 mm in diameter. Then the stoppers are removed after the cells have well adhered to the surface around them, thus allowing the cells to migrate towards the detection zone. The plates without the stoppers and with the active substances are incubated at 37° C. for 24 hours in DMEM 0% SVF. Following this, the amount of cells located in the zone where the stopper was, is analyzed, in order to assess cell migration. A mask restricts visualization and reading to cells located in this zone only. For each condition, the average for 4 to 8 wells is calculated.
The results are expressed as OD (proportional to the amount of migrated cells).
Percent activity with regard to the negative control is calculated as: […]
Percent activity with regard to TGFβ is calculated as: […]

[1] = Experiment 1, 1 μM, 24 hours at 37° C., DMEM 0% SVF, OD proportional to amount of migrated cells
[2] = Experiment 2, 1 μM, 24 hours at 37° C., DMEM 0% SVF, OD proportional to amount of migrated cells
[3] = summary statement, no concentration given
[4] = Experiment 1, 5 ng/mL, 24 hours, positive control
[5] = Experiment 2, 5 ng/mL, 24 hours, positive control

Compound | % activity/TGFβ (Experiment 1, 1 μM, 24 hours) [%] | % activity/negative control (Experiment 1, 1 μM, 24 hours) [%] | Average OD [1] | % activity/TGFβ (Experiment 2, 1 μM, 24 hours) [%] | % activity/negative control (Experiment 2, 1 μM, 24 hours) [%] | Average OD [2] | induction of keratinocyte migration (in words) (at the concentrations tested) | induction of keratinocyte migration (in words) [3] | induction of keratinocyte migration (in words) (5 ng/mL, both experiments, positive control) | % activity/negative control [4] [%] | Average OD [4] | % activity/negative control [5] [%] | Average OD [5] | activity compared with the positive control TGFβ (in words) (1 μM vs TGFβ 5 ng/mL) | induction of keratinocyte migration (in words) (1 μM, both experiments)
O=S(=O)([O-])OC[C@H]1O[C@@](COS(=O)(=O)[O-])(O[C@H]2O[C@H](COS(=O)(=O)[O-])[C@@H](OS(=O)(=O)[O-])[C@H](OS(=O)(=O)[O-])[C@H]2OS(=O)(=O)[O-])[C@@H](OS(=O)(=O)[O-])[C@@H]1OS(=O)(=O)[O-].[K+].[K+].[K+].[K+].[K+].[K+].[K+].[K+] [SOS-K, Potassium sucrose octasulfate] | 6.9 | 113.5 | 99.5 | 42.2 | 135.3 | 321.3 | do not induce keratinocyte migration | do not induce cell migration | – | – | – | – | – | – | –
O=S(=O)([O-])OC[C@H]1O[C@@](COS(=O)(=O)[O-])(O[C@H]2O[C@H](COS(=O)(=O)[O-])[C@@H](OS(=O)(=O)[O-])[C@H](OS(=O)(=O)[O-])[C@H]2OS(=O)(=O)[O-])[C@@H](OS(=O)(=O)[O-])[C@@H]1OS(=O)(=O)[O-].[Na+].[Na+].[Na+].[Na+].[Na+].[Na+].[Na+].[Na+] [SOS-Na, Sodium sucrose octasulfate] | −34.6 | 32.6 | 28.6 | −47.1 | 59.9 | 142.3 | do not induce keratinocyte migration | do not induce cell migration | – | – | – | – | – | – | –
TGFβ: Positive control: TGFβ1, polypeptide growth factor | – | – | – | – | – | – | – | – | induces keratinocyte migration reproducibly | 294.9 | 258.6 | 183.8 | 436.3 | – | –
zinc sucrose octasulfate [SOS-Zn] | 128.3 | 350.0 | 306.9 | 90.7 | 176.0 | 417.8 | – | induces keratinocyte migration | – | – | – | – | – | as active as the positive control TGFβ | induces cell migration reproducibly
